These results are taken from patent publication US12214036B2, “Combination therapy comprising AXL/MER and PD-1/PD-L1 inhibitors” (Incyte Corporation, priority 2020, dated 2025).

In the assay the target is T1, AXL (Homo sapiens, UniProt P30530).
T1 construct: tumor cell lines expressing high levels of endogenous AXL; endogenous in cells; host or cells: H1299
T1 sequence (P30530 26-894): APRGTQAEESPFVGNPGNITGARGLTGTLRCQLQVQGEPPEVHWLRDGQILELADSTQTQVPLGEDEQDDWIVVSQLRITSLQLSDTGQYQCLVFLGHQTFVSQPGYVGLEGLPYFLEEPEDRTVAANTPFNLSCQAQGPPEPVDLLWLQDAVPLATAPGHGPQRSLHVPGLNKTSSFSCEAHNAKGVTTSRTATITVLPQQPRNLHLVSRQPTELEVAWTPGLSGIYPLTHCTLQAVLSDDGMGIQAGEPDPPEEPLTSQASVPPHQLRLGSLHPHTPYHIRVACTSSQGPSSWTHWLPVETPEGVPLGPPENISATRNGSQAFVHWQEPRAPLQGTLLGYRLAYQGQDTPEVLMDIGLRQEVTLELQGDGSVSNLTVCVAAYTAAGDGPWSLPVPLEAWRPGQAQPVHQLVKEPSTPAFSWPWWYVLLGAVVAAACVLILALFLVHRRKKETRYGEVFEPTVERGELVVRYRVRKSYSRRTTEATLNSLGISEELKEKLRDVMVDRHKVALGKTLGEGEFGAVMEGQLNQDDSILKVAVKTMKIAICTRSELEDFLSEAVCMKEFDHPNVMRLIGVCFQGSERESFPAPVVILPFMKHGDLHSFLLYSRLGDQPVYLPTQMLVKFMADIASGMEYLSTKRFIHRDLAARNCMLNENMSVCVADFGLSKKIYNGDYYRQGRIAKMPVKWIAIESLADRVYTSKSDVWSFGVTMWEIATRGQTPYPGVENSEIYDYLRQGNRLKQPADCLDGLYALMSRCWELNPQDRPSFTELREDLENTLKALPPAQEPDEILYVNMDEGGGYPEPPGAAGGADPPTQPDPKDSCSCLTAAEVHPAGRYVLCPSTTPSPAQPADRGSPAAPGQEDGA
Description: pAXL inhibition assay in H1299 cells (ELISA). The format is cell-based. The following applies: rhGAS6 stimulation, N=19 (FIG. 2). As to the method:
The ability of Compound 1 to modulate AXL activity was evaluated in tumor cell lines expressing high levels of endogenous AXL.
H1299 cells were plated (30,000 cells/well) in 96-well tissue-culture plates (Costar, Corning Incorporated, Corning, N.Y.) and incubated overnight at 37° C. with 5% CO2. Compound 1 at an appropriate concentration was added and incubated for 1 hour at 37° C. with 5% CO2. rhGAS6 (R&D Systems, Minneapolis, Minn.; #885-GSB) was added at 1 μg/mL to each well, and plates were incubated at 37° C. with 5% CO2 for 15 minutes. Cells were harvested and lysed in 110 μL of ice-cold lysis buffer (Cell Signaling Technology, Danvers, Mass.; #9803) with protease and phosphatase inhibitors (ThermoFisher Scientific; #78446) for 1 hour on ice and stored at −80° C. for ELISA. ELISA plates were prepared by incubating Greiner lumitrac high-binding plates with 8 μg/mL of anti-AXL antibody (R&D Systems; MAB154) overnight at room temperature. The plates were washed and blocked with phosphate buffered saline (PBS) with 0.1% BSA. Cell lysates were loaded onto ELISA plates and incubated 2 hours at room temperature. […] The plates were gently shaken for 15 minutes at room temperature and read on the PheraStar (BMG Labtech). […]
Background: In an ELISA, binding on a coated surface is turned into a signal by an enzyme label.

In general, IC50 refers to the concentration that gives 50% inhibition. `CC(C)C(=O)N1CCC(c2cc(-c3ccc(NC(=O)c4cn(C(C)C)c(=O)n(-c5ccccn5)c4=O)cc3)c3c(N)ncnn23)CC1` [Compound 1, N-(4-(4-Amino-7-(1-isobutyrylpiperidin-4-yl)pyrrolo[1,2-f][1,2,4]triazin-5-yl)phenyl)-1-isopropyl-2,4-dioxo-3-(pyridin-2-yl)-1,2,3,4-tetrahydropyrimidine-5-carboxamide] displayed a half-maximal inhibitory concentration (IC50) of 1.8 ± 0.63 nM.
